Patent US20250171474A1, “CRYSTAL FORM OF […]” (Zhejiang Yangli Pharmaceutical Technology Co., Ltd., priority 2022, published 2025)

Assays:
[1] = system: HepG2-luc orthotopic xenograft tumor; assay: In vivo pharmacodynamics on orthotopic xenograft tumor model of human liver cancer HepG2; parameters: species or system Balb/C nude mice; conditions: for Bioluminescence (Day 1) / Bioluminescence (Day 21): mean, n=6 (Table 8); for Bioluminescence (Day 21) / RBL (Day 21), relative tumor signal growth value / T/C (%) (Day 21) / TGI (%) (Day 21) / T/Cweight (%) / Tumor weight (Day 21): Day 21; for T/Cweight (%): TWtreatment/TWvehicle; for Tumor weight (Day 21): mean ± SEM, n=6
Procedure: In this experiment, orthotopic xenograft tumor model of HepG2 in a nude mouse was used to evaluate the anti-tumor effect of the compound.
Female Balb/C nude mice, 6 to 8 weeks old, weighing 18 to 22 g, fetal bovine serum […], EMEM medium (Cat. No. 30-2003), phosphate buffer, Antibiotic-Antimycotic (Cat. No. 15240-062), Matrigel, and trypsin.
1. Preparation of cell culture: HepG2-luc cells were cultured in monolayer in vitro. The culture conditions were that 10% heat-inactivated fetal bovine serum was added to EMEM medium and the cells were cultured in an incubator containing 5% CO2 at 37° C. Digestion with trypsin-EDTA was performed twice a week for passaging. When the cell saturation was 80% to 90%, the cells were digested with trypsin-EDTA, counted, and resuspended in PBS and Matrigel (PBS: Matrigel=1:1), and the density was 166.67×10^6 cells/mL.
2. Tumor cell inoculation and grouping: Animals were anesthetized by intramuscular injection of 60 mg/kg Zoletil 50 and 1.5 mg/kg xylazine. When the animals were under deep anesthesia, the animals were properly fixed, and the abdomen skin was cleaned with 75% alcohol cotton balls. An incision of about 10 mm was cut with surgery, and 0.03 mL (PBS: Matrigel=1:1) of HepG2-luc cells was orthotopically inoculated on the left lobe of the liver of each mouse, and then the incision on the muscle layer was sutured with absorbable catgut, and the incision on the skin was sutured with a stapler. After surgery, the animals were kept warm on a warming blanket until they woke up. To relieve the pain of the animals, 2 mg/kg of meloxicam (administered subcutaneously once a day) would be administered for 3 consecutive days after surgery. 15 animals were randomly selected to detect the growth of the signal. When the signal began to rise, animals were randomly divided into groups according to the value of the bioluminescence signal, and the administration of the drug was started.
(§1) The experimental indicator is whether the tumor growth can be delayed or whether the tumor can be cured. After tumor inoculation, the bioluminescence signal and animal weight were detected once a week, which continued until the end of the observation period. The bioluminescence signal value can be used to calculate T/C (wherein T is the administration group, and C is the average intensity value of bioluminescence of the blank control group at the set time). Calculation formula of tumor growth inhibition rate (TGI): TGI (%)=[1−(Ti−T0)/(Vi−V0)]×100, wherein Ti is the average intensity of bioluminescence of the treatment group at the set time; T0 is the average intensity of bioluminescence at the starting point of administration. Vi is the average intensity of bioluminescence of the blank control group at the set time; V0 is the average intensity of bioluminescence at the starting point of administration.
b. Tumor growth inhibition was calculated by T/Cweight=TWtreatment/TWvehicle.
c. The p values were obtained by analyzing the tumor weight using one-way ANOVA between the vehicle group and the treatment groups.

[2] = Animal weight change in the HepG2 orthotopic xenograft model; type: in vivo, Balb/C nude mice; conditions: 1 and 3 mg/kg IV
Source text: as §1

Hep3B cells = assay: Anti-proliferative activity on Hep3B cell line (CellTiter-Glo); type: cell-based
Procedure: (§2) EMEM medium, penicillin/streptomycin antibiotics were purchased from Wisent, and fetal bovine serum was purchased from Biosera. CellTiter-Glo (chemiluminescent cell viability assay reagent) reagent was purchased from Promega. The Hep3B cell line was purchased from the Cell Bank of the Chinese Academy of Sciences. Nivo multimode microplate reader (PerkinElmer).
Hep3B cells (liver cancer) were seeded in a white 96-well plate with 80 μL of cell suspension per well containing 3000 Hep3B cells. The cell plate was incubated overnight in a carbon dioxide incubator. The compound to be tested was 5-fold diluted to the ninth concentration with a multi-channel pipette, that is, the compound to be tested was diluted from 2 mM to 5.12 nM, and an experiment for the sample assayed in duplicate was set up. 78 μL of culture medium was added to the middle plate. According to the corresponding position, 2 µL per well of the gradient-diluted compound was transferred to the middle plate, then 20 μL per well was transferred to the cell plate after mixing well. […] Another cell plate was prepared, and the signal value as the maximum value (Max value in the following equation) was read on the day of drug addition to participate in data analysis. […] A multimode microplate reader was used for reading. […] A multimode microplate reader was used for reading. […]

HepG2 cells = assay: Anti-proliferative activity on HepG2 cell line (CellTiter-Glo); type: cell-based, human
Procedure: as §2, with “DMEM” for “EMEM”, “HepG2” for “Hep3B”
HepG2 cells (liver cancer) were seeded in a white 384-well plate with […] of cell suspension per well containing 1000 HepG2 cells. The cell plate was incubated overnight in a carbon dioxide incubator. The compound to be tested was 3-fold diluted to the ninth concentration with a multi-channel pipette, that is, the compound to be tested was diluted from 200 µM to 30 nM, and an experiment for the sample assayed in duplicate was set up. […] of culture medium was added to the middle plate. According to the corresponding position, […] per well of the gradient-diluted compound was transferred to the middle plate, then […] per well was transferred to the cell plate after mixing well. […] Another cell plate was prepared, and the signal value as the maximum value (Max value in the following equation) was read on the day of drug addition to participate in data analysis. […] A multimode microplate reader was used for reading. […] A multimode microplate reader was used for reading. […]

[3] = Group 2, 1 mg/kg IV Day 0, 7, 14
[4] = Group 3, 3 mg/kg IV Day 0, 7, 14

## O=[N+]([O-])c1cc2c(cc1Oc1cccnc1F)[C@H](OP(=O)(N1CC1)N1CC1)COC2 [Compound of formula (I)]
[1]; 1 mg/kg, after 21 days of administration
  inhibitory effect on tumor growth (in words): significant inhibitory effect on tumor growth
[1]; [3]
  Bioluminescence (Day 1): 3.51E+09 photons/second
  Bioluminescence (Day 21): 4.35E+09 photons/second
[1]; Group 2, 1 mg/kg IV, 0 days after administration (Table 10)
  Bioluminescence signal value of tumor tissue: 1.47E+09 photons/second
[1]; Group 2, 1 mg/kg IV, 7 days after administration (Table 10)
  Bioluminescence signal value of tumor tissue: 4.34E+09 photons/second
[1]; Group 2, 1 mg/kg IV, 14 days after administration (Table 10)
  Bioluminescence signal value of tumor tissue: 4.76E+09 photons/second
[1]; Group 2, 1 mg/kg IV, 21 days after administration (Table 10)
  Bioluminescence signal value of tumor tissue: 4.52E+09 photons/second
[1]; Group 2, 1 mg/kg IV
  RBL (Day 21), relative tumor signal growth value: 0.98
  T/C (%) (Day 21): 10.04%
  TGI (%) (Day 21): 96.97%
  T/Cweight (%): 15.80%
  Tumor weight (Day 21): 0.090 ± 0.036 g
[1]; [4]
  Bioluminescence (Day 1): 3.51E+09 photons/second
  Bioluminescence (Day 21): 1.81E+09 photons/second
[1]; Group 3, 3 mg/kg IV, 0 days after administration (Table 10)
  Bioluminescence signal value of tumor tissue: 1.47E+09 photons/second
[1]; Group 3, 3 mg/kg IV, 7 days after administration (Table 10)
  Bioluminescence signal value of tumor tissue: 2.77E+09 photons/second
[1]; Group 3, 3 mg/kg IV, 14 days after administration (Table 10)
  Bioluminescence signal value of tumor tissue: 2.59E+09 photons/second
[1]; Group 3, 3 mg/kg IV, 21 days after administration (Table 10)
  Bioluminescence signal value of tumor tissue: 2.16E+09 photons/second
[1]; Group 3, 3 mg/kg IV
  RBL (Day 21), relative tumor signal growth value: 0.41
  T/C (%) (Day 21): 4.22%
  TGI (%) (Day 21): 106.21%
  T/Cweight (%): 10.23%
  Tumor weight (Day 21): 0.058 ± 0.013 g
[1]; HepG2 orthotopic model, 1 and 3 mg/kg IV
  inhibitory effect on tumor growth (conclusion, in words): significant inhibitory effect on tumor growth
[1]; dose increased to 3 mg/kg
  anti-tumor effect (in words): significantly enhanced
[2]
  animal weight in the administration group (in words): does not decrease significantly
Hep3B cells; Hep3B with low expression of AKR1C3
  anti-proliferative activity on Hep3B (in words): no anti-proliferative activity
Hep3B cells; Homo sapiens, 72 h, Hep3B (low expression of AKR1C3), 3 days incubation
  IC50: > 10000 nM
HepG2 cells; HepG2 with high expression of AKR1C3
  anti-proliferative activity on HepG2 (in words): excellent anti-proliferative activity
HepG2 cells; Homo sapiens, 120 h, HepG2 (high expression of AKR1C3), 5 days incubation
  IC50: 7.4 nM
